These results are taken from patent US20070142386A1, “New 2-substituted, 4-amino-thiazolo[4,5-d] pyrimidines, useful as chemokine receptor antagonists, esp. cx3cr1” (AstraZeneca, priority 2003, published 2007).

In brackets after ≈: the same amount, converted by molar mass.

In the first series the target is T1, human fractalkine receptor (hCX3CR1) (Homo sapiens, UniProt P49238).
T1 construct: expressed in transfected cells; host or cells: HEKS 293 (human embryonic kidney suspension) cells stably expressing the chimeric G-protein Gαqi5; Membranes were used in the assay
T1 sequence (P49238 1-355): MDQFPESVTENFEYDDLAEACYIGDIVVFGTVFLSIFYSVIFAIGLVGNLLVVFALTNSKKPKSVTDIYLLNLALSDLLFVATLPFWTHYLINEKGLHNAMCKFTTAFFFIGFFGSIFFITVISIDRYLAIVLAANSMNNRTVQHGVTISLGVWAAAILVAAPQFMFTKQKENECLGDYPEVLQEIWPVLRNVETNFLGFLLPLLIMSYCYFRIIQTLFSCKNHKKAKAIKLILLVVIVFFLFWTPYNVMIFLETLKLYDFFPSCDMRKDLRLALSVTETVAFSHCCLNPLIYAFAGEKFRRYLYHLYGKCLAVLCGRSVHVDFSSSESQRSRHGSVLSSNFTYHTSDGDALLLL
In words: Ligand binding assay (competition binding with [125I]-fractalkine on cell membranes).
Settings: not given
Broadly, the Ki is a measure of affinity in units of concentration, obtained from inhibition or displacement. Consider `CC(C)C[C@H](CO)Nc1nc(OCc2ccccc2)[nH]c2nc(=O)sc1-2` [Example 25, 5-(Benzyloxy)-7-{[(1R)-1-(hydroxymethyl)-3-methylbutyl]amino}[1,3]thiazolo[4,5-d]pyrimidin-2(3H)-one], for which the Ki worked out at 44.6 nM.

Staying with this series, now noted: 10 pM [125I]-fractalkine, membranes of HEKS 293 cells expressing hCX3CR1, 25° C., 24 h; read-out: Ki.
Turning to `CC(C)C[C@H](CO)Nc1nc([S+]([O-])Cc2cccc(F)c2F)nc2[nH]c(=O)sc12` (mixture of isomers) [Example 45, 5-[(2,3-Difluorobenzyl)-(RS,SS)-sulfinyl]-7-{[(1R)-1-(hydroxymethyl)-3-methylbutyl]amino}[1,3]thiazolo[4,5-d]pyrimidin-2(3H)-one], the Ki was found to be 38 nM.

Tested on in the next series: not listed separately
Nature of the series: Solubility assay (0.1M phosphate buffer, pH 7.4, 24 hours). In kind it is physicochemical. The conditions noted are these: 100 μM from DMSO stock in 0.1M phosphate buffer, pH 7.4, room temperature, upper limit 100 μM, LOQ 0.1 μM. The method, then: 100 μM Solutions in duplicate, prepared by dilution from a 10 mM DMSO stock solution of the test compound, were incubated in 0.1M phosphate buffer, pH 7.4, in a 96-well plate (PP plate, 350 μl U-shaped wells, COSTAR) on a plate bed shaker (IKA®-Schuttler MTS-4, IKA Labortechnik) at 300 rpm and room temperature (20-22° C.) for 24 hours.
The solutions were transferred to a MultiScreen™-R4 96-well filtration plate (LCR membrane, 0.4 μm hydrophilic PTFE, non-sterile glass-filled PP plate, 350 μl wells, Millipore) and filtered under vacuum to a 96-well collection plate (PP plate, 350 μl U-shaped wells, COSTAR), called the analyte plate, using Millipore Vacuum Manifold equipment. The analyte plate was covered by heat-sealing with an aluminium foil coated with a PP seal layer (AB-0813, pierceable sealing foil strong, ABgene).
LC-UV-MS analysis was performed using a generic LC method.
Single point quantification was performed against two 100 μM standards of the test compound dissolved in DMSO at the wavelength showing maximum UV absorbance as extracted from the DAD-trace (210-400 nm). The upper limit of the screen method is 100 μM with a LOQ of 0.1 μM.
Broadly, the solubility is the dissolved amount per volume that the medium holds. Higher therefore signals a readily soluble substance. `CC(C)C[C@H](CO)N(C)c1nc([S+]([O-])CCc2ccccc2Br)nc2nc(N)sc12` (mixture of isomers) [Example 13, (R)-2-[(2-Amino-5-{[2-(2-bromophenyl)ethyl]-(RS,SS)-sulfinyl}[1,3]thiazolo[4,5-d]pyrimidin-7-yl)(methyl)amino]-4-methylpentan-1-ol] gave a solubility at 24 h of 33.8 µM (≈ 17.3 µg/mL).

Staying with this series, now noted: 21 °C, aqueous buffer, kinetic from dmso stock, 100 μM from DMSO stock in 0.1M phosphate buffer, pH 7.4, room temperature, upper limit 100 μM, LOQ 0.1 μM.
`CC(C)C[C@H](CO)Nc1nc(SCc2cccc(F)c2F)nc2[nH]c(=O)sc12` [drawing 20 X = S, 5-[(2,3-Difluorobenzyl)thio]-7-{[(1R)-1-(hydroxymethyl)-3-methylbutyl]amino}[1,3]thiazolo[4,5-d]pyrimidin-2(3H)-one, reference compound] yielded a solubility at 24 h of 2.1 µM (≈ 0.896 µg/mL). In the case of `CC(C)C[C@H](CO)Nc1nc(OCc2ccccc2)[nH]c2nc(=O)sc1-2` [Example 25, 5-(Benzyloxy)-7-{[(1R)-1-(hydroxymethyl)-3-methylbutyl]amino}[1,3]thiazolo[4,5-d]pyrimidin-2(3H)-one], the solubility at 24 h turned out to be 29 µM (≈ 10.9 µg/mL). `CC(C)[C@H](CO)Nc1nc(SCc2ccccc2)nc2[nH]c(=O)sc12` [drawing 21 X = S, 5-(Benzylthio)-7-{[(1R)-1-(hydroxymethyl)-2-methylpropyl]amino}[1,3]thiazolo[4,5-d]pyrimidin-2(3H)-one, reference compound] came in with a solubility at 24 h of 8.5 µM (≈ 3.2 µg/mL). `COc1cccc(COc2nc(N[C@@H](CO)CC(C)C)c3sc(=O)[nH]c3n2)c1` [Example 26, 7-{[(1R)-1-(Hydroxymethyl)-3-methylbutyl]amino}-5-[(3-methoxybenzyl)oxy][1,3]thiazolo[4,5-d]pyrimidin-2(3H)-one] displayed a solubility at 24 h of 78.5 µM (≈ 31.8 µg/mL). `CC(C)C[C@H](CO)Nc1nc(SCc2cccc(F)c2F)nc2[nH]c(=O)cnc12` [drawing 17 X = S, 2-[(2,3-Difluorobenzyl)thio]-4-{[(1R)-1-(hydroxymethyl)-3-methylbutyl]amino}pteridin-7(8H)-one, reference compound]: the solubility at 24 h stood at 1.3 µM (≈ 0.548 µg/mL). For the compound `CC(C)C[C@H](CO)Nc1nc([S+]([O-])Cc2cccc(F)c2F)nc2[nH]c(=O)sc12` (mixture of isomers) [Example 45, 5-[(2,3-Difluorobenzyl)-(RS,SS)-sulfinyl]-7-{[(1R)-1-(hydroxymethyl)-3-methylbutyl]amino}[1,3]thiazolo[4,5-d]pyrimidin-2(3H)-one], the solubility at 24 h is > 100 µM. On to `CC(C)C[C@H](CO)Nc1nc(SCc2ccccc2)nc2[nH]c(=O)sc12` [drawing 18 X = S, 5-(Benzylthio)-7-{[(1R)-1-(hydroxymethyl)-3-methylbutyl]amino}[1,3]thiazolo[4,5-d]pyrimidin-2(3H)-one, reference compound], for which the solubility at 24 h was determined as 1.3 µM (≈ 0.508 µg/mL). The same measure, in the same setting: under `COc1cccc(COc2nc(N[C@@H](CO)CC(C)C)c3sc(N)nc3n2)c1` [Example 2, (2R)-2-({2-Amino-5-[(3-methoxybenzyl)oxy][1,3]thiazolo[4,5-d]pyrimidin-7-yl}amino)-4-methylpentan-1-ol] stands 72.9 µM (≈ 29.4 µg/mL); under `CC(C)C[C@H](CO)Nc1nc(OCCc2ccccc2)nc2nc(N)sc12` [Example 3, (2R)-2-{[2-Amino-5-(2-phenylethoxy)[1,3]thiazolo[4,5-d]pyrimidin-7-yl]amino}-4-methylpentan-1-ol], 63.6 µM (≈ 24.6 µg/mL); under `CC(C)CC(CO)Nc1nc([S+]([O-])Cc2cccc(F)c2F)nc2[nH]c(=O)cnc12` [Example 24, 2-[(2,3-Difluorobenzyl)-(RS,SS)-sulfinyl]-4-(1R)-1-(hydroxymethyl)-3-methylbutyl]amino}pteridin-7(8H)-one], 44 µM (≈ 19.2 µg/mL). Regarding `CC(C)C(CO)Nc1nc([S+]([O-])Cc2ccccc2)nc2[nH]c(=O)sc12` [Example 49, 5-[Benzyl-(RSSS)-sulfinyl]-7-{[(1R)-1-(hydroxymethyl)-2-methylpropyl]amino}[1,3]thiazolo[4,5-d]pyrimidin-2(3H)-one], the solubility at 24 h was > 100 µM.
